{"source": "paper PMC3832595", "about": "“Synthesis of a Pseudo-Disaccharide Library and Its Application to the Characterisation of the Heparanase Catalytic Site” (PLoS ONE, 2013)", "biological_target": "T1, human heparanase (Homo sapiens, UniProt Q9Y251)", "T1 construct": "purchased Apollo Scientific, Cheshire UK", "T1 sequence (Q9Y251 158-543 limits assumed)": "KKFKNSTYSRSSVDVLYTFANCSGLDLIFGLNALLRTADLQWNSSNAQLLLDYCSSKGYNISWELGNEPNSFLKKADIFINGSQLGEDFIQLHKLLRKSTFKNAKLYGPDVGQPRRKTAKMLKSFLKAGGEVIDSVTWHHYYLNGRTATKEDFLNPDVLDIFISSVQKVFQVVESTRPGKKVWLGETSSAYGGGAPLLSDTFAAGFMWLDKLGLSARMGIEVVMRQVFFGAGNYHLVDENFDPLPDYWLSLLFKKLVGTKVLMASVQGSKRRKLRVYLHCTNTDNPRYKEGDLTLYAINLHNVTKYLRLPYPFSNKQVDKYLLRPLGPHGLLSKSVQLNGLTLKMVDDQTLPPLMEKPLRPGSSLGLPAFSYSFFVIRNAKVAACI", "T1 sequence (Q9Y251 36-109 limits assumed)": "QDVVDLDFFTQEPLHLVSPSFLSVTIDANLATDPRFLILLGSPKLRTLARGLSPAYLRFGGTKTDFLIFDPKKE", "experiment": "Heparanase inhibition assay (biotinylated heparan sulfate degradation, CBD-FGF binding, avidin-POD detection; modified Genway kit)", "format": "biochemical", "conditions": "recombinant human heparanase; for IC50: mean of three readings ± standard error, read-out: IC50 (n=3) against human heparanase", "data": [{"smiles": "NC1CC(CO)C(OC2OC(CO)C(O)C(O)C2O)CC1O", "note": "(stereo not shown) [8a]", "values": [{"measurement": "IC50", "value": "1200 ± 300", "unit": "µM"}]}, {"smiles": "NC1CC(CO)C(OC2OC(CO)C(O)C(O)C2O)CC1O", "note": "(stereo not shown) [8b]", "values": [{"measurement": "IC50", "value": "800 ± 200", "unit": "µM"}]}, {"smiles": "NC1CC(CO)C(OC2OC(CO)C(O)C(O)C2O)CC1O", "note": "(stereo not shown) [8d]", "values": [{"measurement": "IC50", "value": "800 ± 200", "unit": "µM"}]}, {"smiles": "CCCCOC1CC(O)C(N)CC1CO", "note": "(stereo not shown) [compound 11]", "values": [{"measurement": "Inhibition of heparanase (result in words)", "value": "no significant inhibition"}, {"measurement": "IC50", "value": "> 10000", "unit": "µM"}]}, {"smiles": "NC1CC(CO)C(OC2OC(CO)C(O)C(O)C2O)CC1O", "note": "(stereo not shown) [8c]", "values": [{"measurement": "Inhibition of heparanase (result in words)", "value": "no significant activity"}, {"measurement": "IC50", "value": "> 10000", "unit": "µM"}]}]}
